US8268854B2, “Aza-beta-carbolines and methods of using same” (The UWM Research Foundation, Inc., priority 2008, dated 2012)
Counter-ions that a name gives are not always drawn. Like-named read-outs stand apart in the source and are kept apart here.

Experiments:
Male P rats = assay: Animal model of excessive (binge) alcohol consumption, operant alcohol responding; assay type: in vivo, rat; details: N=5 per compound, oral gavage, lever press for alcohol, FIG. 13, FIG. 14
Experimental: Male P rats are used as subjects. All animals are individually housed in shoebox cages in a temperature- and humidity-controlled room on a 12 h:12 h light/dark cycle (lights on at 8:00 AM, off at 8:00 PM) with food and water available ad libitum. All behavioral training and testing take place between 8:00 AM and 10:00 AM. All procedures are conducted in accordance with the NIH Guide for the Care and Use of Laboratory Animals.
10% (v/v) EtOH and 3% (w/v) sucrose solutions are prepared using previously published procedures (Harvey et al. J. Neurosci. 2002, 22, 3765-3775; June et al. Neuropsychopharmacology 2003, 28, 2124-2137) with deionized water. The solutions are prepared daily. Compounds are administered by oral gavage (20-60 mg/kg) in all studies (e.g., alcohol responding, sucrose responding) as indicated in FIG. 12. The compounds are mixed in deionized water and administered by gavage in an injection volume of 1 mL/kg 25 min prior to the behavioral task. […]
Approximately 100 μL of whole blood is collected from a rat's tail tip into a heparin-coated microsample tube. […] The results are calculated in units of mg/dL and printed within 20 s of each trial as previously reported (Harvey et al., J. Neurosci. 2002, 22, 3765-3775; June et al. Neuropsychopharmacology 2003, 28, 2124-2137). […]

[1] = molecular target: T1, GABAA receptor α1 subtype with β2 and γ2 subunits (Homo sapiens, UniProt P14867+P18507); assay: Competition binding assay with [3H]flunitrazepam
T1 construct: expressed in transfected cells; host or cells: HEKT cell line, transient transfection with Fugene 6
Source text: (§1) Bound radioactivity is quantified by liquid scintillation counting.

[2] = molecular target: T2, GABAA receptor α5 subtype with β2 and γ2 subunits (Homo sapiens, UniProt P18507+P31644); assay: Competition binding assay with [3H]flunitrazepam
T2 construct: expressed in transfected cells; host or cells: HEKT cell line, transient transfection with Fugene 6
Source text: as §1

[3] = molecular target: T3, GABAA receptor α3 subtype with β2 and γ2 subunits (Homo sapiens, UniProt P18507+P34903); assay: Competition binding assay with [3H]flunitrazepam
T3 construct: expressed in transfected cells; host or cells: HEKT cell line, transient transfection with Fugene 6
Source text: as §1

[4] = molecular target: T4, GABAA receptor α2 subtype with β2 and γ2 subunits (Homo sapiens, UniProt P18507+P47869); assay: Competition binding assay with [3H]flunitrazepam
T4 construct: expressed in transfected cells; host or cells: HEKT cell line, transient transfection with Fugene 6
Source text: as §1

## CCCOc1cc2c(cn1)[nH]c1ccncc12 [Compound 2, 8-Propoxypyridino[4′,3′-5,4]pyrrolo[3,2-c]pyridine hydrochloride]
Male P rats
  effect on excessive alcohol consumption: Reduce Excessive Alcohol Consumption
[1]; [3H]flunitrazepam, α1β2γ2, HEKT cells, read-out: GABAA RECEPTOR BINDING α1
  Ki: 9.86 nM
[2]; [3H]flunitrazepam, α5β2γ2, HEKT cells, read-out: GABAA RECEPTOR BINDING α5
  Ki: 12.2 nM
[3]; [3H]flunitrazepam, α3β2γ2, HEKT cells, read-out: GABAA RECEPTOR BINDING α3
  Ki: 4.04 nM
[4]; [3H]flunitrazepam, α2β2γ2, HEKT cells, read-out: GABAA RECEPTOR BINDING α2
  Ki: 0.33 nM

## CCCOc1cc2c(cn1)[nH]c1cnccc12 [Compound 4, 3-Propoxy pyridino[4′,3′-4,5]pyrrolo[2,3-c]pyridine hydrochloride]
Male P rats
  effect on excessive alcohol consumption: Reduce Excessive Alcohol Consumption
[1]
  Ki: 5.79 nM
[2]
  Ki: 43.1 nM
[3]
  Ki: 1.49 nM
[4]
  Ki: 6.31 nM
